Experimental data as given in US20140271831A1, “RACECADOTRIL LIQUID COMPOSITIONS” (McNeil-PPC, Inc., priority 2013, published 2014).

Assay: Racecadotril and degradation products over time in Acetate and Citrate at pH 3.6, 4.0, 4.5 (untitled table)
Format: physicochemical
Design: key to Impurity C / Impurity G: % peak area relative to the Racecadotril peak
Details: for RAC: in % (unit assumed)
Experimental: • 1. Pipet 1 mL of Racecadotril solution into a 100 mL volumetric flask (V.F.) • 2. Dilute to volume with the same buffer used in the solution preparation. • 3. […] Parameters may be modified to optimize chromatography. • The assay of Racecadotril is determined by using the external standard injected. The degradation products levels are determined by % peak area relative to the Racecadotril peak. [table] [table] Mobil Phase A: Phosphate buffer, pH 2.5 (Buffer prep: dissolve 1 g of potassium dihydrogen phosphate in water, adjust to pH 2.5 with phosphoric acid, dilute to 1000 mL with water) Mobil Phase B: 100% Acetonitrile

CC(=O)SCC(Cc1ccccc1)C(=O)NCC(=O)OCc1ccccc1 (racemic) [Racecadotril]
Benz Alcohol (Acetate, pH 3.6, 1 week): 0.69% | Impurity C (Acetate, pH 3.6, 1 week): 0.93 | Impurity G (Acetate, pH 3.6, 1 week): 1.17 | Thiorphan (Acetate, pH 3.6, 1 week): 0% | RAC (Acetate, pH 3.6, 1 week): 97.21 | Benz Alcohol (Acetate, pH 3.6, 2 week): 1.4% | Impurity C (Acetate, pH 3.6, 2 week): 1.87 | Impurity G (Acetate, pH 3.6, 2 week): 1.74 | Thiorphan (Acetate, pH 3.6, 2 week): 0.11% | RAC (Acetate, pH 3.6, 2 week): 94.88 | Benz Alcohol (Acetate, pH 3.6, 3 week): 2.13% | Impurity C (Acetate, pH 3.6, 3 week): 2.78 | Impurity G (Acetate, pH 3.6, 3 week): 1.93 | Thiorphan (Acetate, pH 3.6, 3 week): 0.14% | RAC (Acetate, pH 3.6, 3 week): 93.01 | Benz Alcohol (Acetate, pH 3.6, 4 week): 2.84% | Impurity C (Acetate, pH 3.6, 4 week): 3.56 | Impurity G (Acetate, pH 3.6, 4 week): 3 | Thiorphan (Acetate, pH 3.6, 4 week): 0.3% | RAC (Acetate, pH 3.6, 4 week): 90.15 | Benz Alcohol (Acetate, pH 3.6, 6 week): 4.33% | Impurity C (Acetate, pH 3.6, 6 week): 5.17 | Impurity G (Acetate, pH 3.6, 6 week): 3.82 | Thiorphan (Acetate, pH 3.6, 6 week): 0.57% | RAC (Acetate, pH 3.6, 6 week): 85.75 | Benz Alcohol (Acetate, pH 3.6, 8 week): 5.78% | Impurity C (Acetate, pH 3.6, 8 week): 6.2 | Impurity G (Acetate, pH 3.6, 8 week): 5.28 | Thiorphan (Acetate, pH 3.6, 8 week): 1% | RAC (Acetate, pH 3.6, 8 week): 80.68 | Benz Alcohol (Acetate, pH 3.6, Initial): 0% | Impurity C (Acetate, pH 3.6, Initial): 0 | Impurity G (Acetate, pH 3.6, Initial): 0.07 | Thiorphan (Acetate, pH 3.6, Initial): 0% | RAC (Acetate, pH 3.6, Initial): 99.93 | Benz Alcohol (Acetate, pH 4.0, 1 week): 0.7% | Impurity C (Acetate, pH 4.0, 1 week): 0.93 | Impurity G (Acetate, pH 4.0, 1 week): 1.36 | Thiorphan (Acetate, pH 4.0, 1 week): 0% | RAC (Acetate, pH 4.0, 1 week): 97.01 | Benz Alcohol (Acetate, pH 4.0, 2 week): 1.39% | Impurity C (Acetate, pH 4.0, 2 week): 1.82 | Impurity G (Acetate, pH 4.0, 2 week): 1.7 | Thiorphan (Acetate, pH 4.0, 2 week): 0.7% | RAC (Acetate, pH 4.0, 2 week): 95.02 | Benz Alcohol (Acetate, pH 4.0, 3 week): 2.09% | Impurity C (Acetate, pH 4.0, 3 week): 2.83 | Impurity G (Acetate, pH 4.0, 3 week): 2.66 | Thiorphan (Acetate, pH 4.0, 3 week): 0.19% | RAC (Acetate, pH 4.0, 3 week): 92.23 | Benz Alcohol (Acetate, pH 4.0, 4 week): 2.84% | Impurity C (Acetate, pH 4.0, 4 week): 3.52 | Impurity G (Acetate, pH 4.0, 4 week): 3.62 | Thiorphan (Acetate, pH 4.0, 4 week): 0.38% | RAC (Acetate, pH 4.0, 4 week): 89.5 | Benz Alcohol (Acetate, pH 4.0, 6 week): 4.28% | Impurity C (Acetate, pH 4.0, 6 week): 5.16 | Impurity G (Acetate, pH 4.0, 6 week): 5.67 | Thiorphan (Acetate, pH 4.0, 6 week): 0.71% | RAC (Acetate, pH 4.0, 6 week): 83.98 | Benz Alcohol (Acetate, pH 4.0, 8 week): 5.37% | Impurity C (Acetate, pH 4.0, 8 week): 6.2 | Impurity G (Acetate, pH 4.0, 8 week): 8.46 | Thiorphan (Acetate, pH 4.0, 8 week): 1.19% | RAC (Acetate, pH 4.0, 8 week): 78.53 | Benz Alcohol (Acetate, pH 4.0, Initial): 0% | Impurity C (Acetate, pH 4.0, Initial): 0 | Impurity G (Acetate, pH 4.0, Initial): 0 | Thiorphan (Acetate, pH 4.0, Initial): 0% | RAC (Acetate, pH 4.0, Initial): 100 | Benz Alcohol (Acetate, pH 4.5, 1 week): 0.022% | Impurity C (Acetate, pH 4.5, 1 week): 0.21 | Impurity G (Acetate, pH 4.5, 1 week): 3.17 | Thiorphan (Acetate, pH 4.5, 1 week): 0.02% | RAC (Acetate, pH 4.5, 1 week): 96.33 | Benz Alcohol (Acetate, pH 4.5, 2 week): 0.4% | Impurity C (Acetate, pH 4.5, 2 week): 0.4 | Impurity G (Acetate, pH 4.5, 2 week): 6.5 | Thiorphan (Acetate, pH 4.5, 2 week): 0.04% | RAC (Acetate, pH 4.5, 2 week): 92.61 | Benz Alcohol (Acetate, pH 4.5, 3 week): 0.59% | Impurity C (Acetate, pH 4.5, 3 week): 0.58 | Impurity G (Acetate, pH 4.5, 3 week): 9.43 | Thiorphan (Acetate, pH 4.5, 3 week): 0.06% | RAC (Acetate, pH 4.5, 3 week): 89.29 | Benz Alcohol (Acetate, pH 4.5, 4 week): 0.79% | Impurity C (Acetate, pH 4.5, 4 week): 0.72 | Impurity G (Acetate, pH 4.5, 4 week): 11.84 | Thiorphan (Acetate, pH 4.5, 4 week): 0.11% | RAC (Acetate, pH 4.5, 4 week): 86.5 | Benz Alcohol (Acetate, pH 4.5, 6 week): 1.14% | Impurity C (Acetate, pH 4.5, 6 week): 1.04 | Impurity G (Acetate, pH 4.5, 6 week): 17.32 | Thiorphan (Acetate, pH 4.5, 6 week): 0.2% | RAC (Acetate, pH 4.5, 6 week): 80.25 | Benz Alcohol (Acetate, pH 4.5, 8 week): 1.51% | Impurity C (Acetate, pH 4.5, 8 week): 1.25 | Impurity G (Acetate, pH 4.5, 8 week): 21.73 | Thiorphan (Acetate, pH 4.5, 8 week): 0.36% | RAC (Acetate, pH 4.5, 8 week): 75.06 | Benz Alcohol (Acetate, pH 4.5, Initial): 0.02% | Impurity C (Acetate, pH 4.5, Initial): 0.02 | Impurity G (Acetate, pH 4.5, Initial): 0.21 | Thiorphan (Acetate, pH 4.5, Initial): 0.01% | RAC (Acetate, pH 4.5, Initial): 99.68 | Benz Alcohol (Citrate, pH 3.6, 1 week): 0.79% | Impurity C (Citrate, pH 3.6, 1 week): 0.98 | Impurity G (Citrate, pH 3.6, 1 week): 1.78 | Thiorphan (Citrate, pH 3.6, 1 week): 0% | RAC (Citrate, pH 3.6, 1 week): 96.45 | Benz Alcohol (Citrate, pH 3.6, 2 week): 1.72% | Impurity C (Citrate, pH 3.6, 2 week): 2.3 | Impurity G (Citrate, pH 3.6, 2 week): 3.81 | Thiorphan (Citrate, pH 3.6, 2 week): 0.13% | RAC (Citrate, pH 3.6, 2 week): 92.01 | Benz Alcohol (Citrate, pH 3.6, 3 week): 2.59% | Impurity C (Citrate, pH 3.6, 3 week): 3.36 | Impurity G (Citrate, pH 3.6, 3 week): 5.52 | Thiorphan (Citrate, pH 3.6, 3 week): 0.31% | RAC (Citrate, pH 3.6, 3 week): 88.22 | Benz Alcohol (Citrate, pH 3.6, 4 week): 3.38% | Impurity C (Citrate, pH 3.6, 4 week): 4.23 | Impurity G (Citrate, pH 3.6, 4 week): 7.38 | Thiorphan (Citrate, pH 3.6, 4 week): 0.47% | RAC (Citrate, pH 3.6, 4 week): 84.51 | Benz Alcohol (Citrate, pH 3.6, 6 week): 5.09% | Impurity C (Citrate, pH 3.6, 6 week): 6.13 | Impurity G (Citrate, pH 3.6, 6 week): 9.72 | Thiorphan (Citrate, pH 3.6, 6 week): 1.11% | RAC (Citrate, pH 3.6, 6 week): 77.91 | Benz Alcohol (Citrate, pH 3.6, 8 week): 6.64% | Impurity C (Citrate, pH 3.6, 8 week): 7.54 | Impurity G (Citrate, pH 3.6, 8 week): 12.47 | Thiorphan (Citrate, pH 3.6, 8 week): 1.8% | RAC (Citrate, pH 3.6, 8 week): 71.51 | Benz Alcohol (Citrate, pH 3.6, Initial): 0% | Impurity C (Citrate, pH 3.6, Initial): 0 | Impurity G (Citrate, pH 3.6, Initial): 0.09 | Thiorphan (Citrate, pH 3.6, Initial): 0% | RAC (Citrate, pH 3.6, Initial): 99.91 | Benz Alcohol (Citrate, pH 4.0, 1 week): 0.89% | Impurity C (Citrate, pH 4.0, 1 week): 1.23 | Impurity G (Citrate, pH 4.0, 1 week): 1.95 | Thiorphan (Citrate, pH 4.0, 1 week): 0% | RAC (Citrate, pH 4.0, 1 week): 95.93 | Benz Alcohol (Citrate, pH 4.0, 2 week): 1.41% | Impurity C (Citrate, pH 4.0, 2 week): 1.82 | Impurity G (Citrate, pH 4.0, 2 week): 3.47 | Thiorphan (Citrate, pH 4.0, 2 week): 0.11% | RAC (Citrate, pH 4.0, 2 week): 93.19 | Benz Alcohol (Citrate, pH 4.0, 3 week): 2.36% | Impurity C (Citrate, pH 4.0, 3 week): 2.82 | Impurity G (Citrate, pH 4.0, 3 week): 4.79 | Thiorphan (Citrate, pH 4.0, 3 week): 0.21% | RAC (Citrate, pH 4.0, 3 week): 89.91 | Benz Alcohol (Citrate, pH 4.0, 4 week): 2.79% | Impurity C (Citrate, pH 4.0, 4 week): 3.43 | Impurity G (Citrate, pH 4.0, 4 week): 6.57 | Thiorphan (Citrate, pH 4.0, 4 week): 0.4% | RAC (Citrate, pH 4.0, 4 week): 86.78 | Benz Alcohol (Citrate, pH 4.0, 6 week): 4.19% | Impurity C (Citrate, pH 4.0, 6 week): 4.98 | Impurity G (Citrate, pH 4.0, 6 week): 9.24 | Thiorphan (Citrate, pH 4.0, 6 week): 0.85% | RAC (Citrate, pH 4.0, 6 week): 80.7 | Benz Alcohol (Citrate, pH 4.0, 8 week): 5.54% | Impurity C (Citrate, pH 4.0, 8 week): 6.22 | Impurity G (Citrate, pH 4.0, 8 week): 11.26 | Thiorphan (Citrate, pH 4.0, 8 week): 1.42% | RAC (Citrate, pH 4.0, 8 week): 75.6 | Benz Alcohol (Citrate, pH 4.0, Initial): 0% | Impurity C (Citrate, pH 4.0, Initial): 0 | Impurity G (Citrate, pH 4.0, Initial): 0 | Thiorphan (Citrate, pH 4.0, Initial): 0% | RAC (Citrate, pH 4.0, Initial): 100 | Benz Alcohol (Citrate, pH 4.5, 1 week): 0.22% | Impurity C (Citrate, pH 4.5, 1 week): 0.18 | Impurity G (Citrate, pH 4.5, 1 week): 3.15 | Thiorphan (Citrate, pH 4.5, 1 week): 0.01% | RAC (Citrate, pH 4.5, 1 week): 96.44 | Benz Alcohol (Citrate, pH 4.5, 2 week): 0.4% | Impurity C (Citrate, pH 4.5, 2 week): 0.36 | Impurity G (Citrate, pH 4.5, 2 week): 6.04 | Thiorphan (Citrate, pH 4.5, 2 week): 0.03% | RAC (Citrate, pH 4.5, 2 week): 93.19 | Benz Alcohol (Citrate, pH 4.5, 3 week): 0.59% | Impurity C (Citrate, pH 4.5, 3 week): 0.52 | Impurity G (Citrate, pH 4.5, 3 week): 8.66 | Thiorphan (Citrate, pH 4.5, 3 week): 0.06% | RAC (Citrate, pH 4.5, 3 week): 90.2 | Benz Alcohol (Citrate, pH 4.5, 4 week): 0.79% | Impurity C (Citrate, pH 4.5, 4 week): 0.62 | Impurity G (Citrate, pH 4.5, 4 week): 11.16 | Thiorphan (Citrate, pH 4.5, 4 week): 0.1% | RAC (Citrate, pH 4.5, 4 week): 87.41 | Benz Alcohol (Citrate, pH 4.5, 6 week): 1.14% | Impurity C (Citrate, pH 4.5, 6 week): 0.9 | Impurity G (Citrate, pH 4.5, 6 week): 15.86 | Thiorphan (Citrate, pH 4.5, 6 week): 0.17% | RAC (Citrate, pH 4.5, 6 week): 82.05 | Benz Alcohol (Citrate, pH 4.5, 8 week): 1.51% | Impurity C (Citrate, pH 4.5, 8 week): 1.11 | Impurity G (Citrate, pH 4.5, 8 week): 19.95 | Thiorphan (Citrate, pH 4.5, 8 week): 0.29% | RAC (Citrate, pH 4.5, 8 week): 77.34 | Benz Alcohol (Citrate, pH 4.5, Initial): 0.02% | Impurity C (Citrate, pH 4.5, Initial): 0.01 | Impurity G (Citrate, pH 4.5, Initial): 0.19 | Thiorphan (Citrate, pH 4.5, Initial): 0.01% | RAC (Citrate, pH 4.5, Initial): 99.71
